Among the data in PubChem BioAssay (NCI) are TGI values, retold here.

Test in all cases: growth of human tumour cells (NCI), 48 h
For assay [1], the system named is UACC-62 melanoma.
Assay [2] concerns HL-60(TB) leukemia.
The subject of assay [3] is PC-3 prostate.
Assay [4] relates to NCI-H522 lung.
For assay [5], the system named is SN12C renal.
In assay [6] the test system is CCRF-CEM leukemia.
Assay [7] concerns OVCAR-3 ovarian.
Assay [8] concerns CAKI-1 renal.
The test system of assay [9] is M14 melanoma.
Assay [10] concerns SNB-75 CNS.
In assay [11] the test system is EKVX NSCLC.
In assay [12] the test system is RXF 393 renal.
Assay [13] has as its system SK-MEL-2 melanoma.
Assay [14] relates to SK-MEL-5 melanoma.
Assay [15] deals with HCT-15 colon.
In assay [16] the test system is HOP-62 NSCLC.
The test system of assay [17] is HS 578T breast.
Assay [18] relates to MOLT-4 leukemia.
Assay [19] relates to A549 NSCLC.
Assay [20] deals with MDA-MB-435.

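In this assay, cells in 96-well plates receive the compound at five concentrations for 48 hours. Endpoints are linearly interpolated between the surrounding concentrations. TGI: total growth inhibition.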 Where only a bound is given, the exact number is not on record here.

As for `Fc1ccc(C(=C2CCN(CCc3ccc4[nH]c(=S)[nH]c4c3)CC2)c2ccc(F)cc2)cc1`, the TGI in assay [1] is 19 µM; in assay [2], 4.63 µM; in assay [3] it was 8.76 µM; in assay [4], 3.65 µM; in assay [5], 9.25 µM; in [6], over 20.6 µM. Moreover, the TGI in [7] was 4.23 µM; in assay [8], 28.6 µM; in assay [9], 2.9 µM; in assay [10], 7.31 µM; in assay [11], 9.04 µM; in assay [12], 3.49 µM. For the same compound, the TGI was 7.95 µM in assay [13]; 5.74 µM in assay [14]; 11.4 µM in assay [15]; 38.6 µM in [16]; 40.8 µM in assay [17]; over 27.8 µM in assay [18]. Besides, the TGI in [19] is over 40.5 µM.

As for `CN1C(=O)CSC1=S`, the TGI in [1], in [2], in assay [4], in [5], in assay [6] and in [7] was over 100 µM throughout. The TGI in assay [8], in [9], in assay [10], in [12], in [13] and in [14] was over 100 µM in each case. The TGI in assay [15], in [16], in assay [18] and in [19] was over 100 µM each time.

Take `Cc1cc(C2CC(O)C(CO)O2)c(F)cc1F` (centres undefined): the TGI in assay [1], in [2], in assay [3], in [4], in assay [5] and in assay [6] was over 100 µM each time. Further, the TGI in [7], in assay [8], in assay [9], in [10], in assay [11] and in assay [12] was over 100 µM throughout. Moreover, the TGI in [20], in assay [15], in assay [16], in assay [18] and in assay [19] was over 100 µM in each case.

Take `CCCCCC(=O)CCCCCCCC(O)CC(=O)OCC` (centres undefined): the TGI in [2], in assay [3], in assay [4], in [5], in assay [6] and in assay [7] was over 100 µM throughout. Moreover, the TGI in assay [8], in assay [9], in assay [14], in [20], in assay [15] and in assay [16] was over 100 µM throughout. For the same compound, the TGI in [17], in [18] and in assay [19] was over 100 µM throughout.

On to `N#CC1=C(Nc2ccccc2)SC=C(c2ccccc2)NC1=NCc1ccccc1`, for which the TGI in [1], in assay [3], in [4], in assay [5], in assay [7] and in [8] was over 100 µM throughout. In addition, the TGI in assay [9], in assay [12], in [13], in [14], in assay [20] and in assay [15] was over 100 µM in each case. Further, the TGI in [16], in [18] and in assay [19] was over 100 µM throughout.

As to `Cc1cc(C)c2c(c1)C/C(=C\c1ccccc1C(=O)O)C2=O`, the TGI in assay [2], in assay [3], in assay [4], in [5], in assay [6] and in assay [7] was over 100 µM in each case. Also, the TGI in assay [8], in assay [9], in [10], in assay [11], in assay [12] and in [14] was over 100 µM in each case. Further, the TGI in assay [15], in assay [16], in assay [17], in [18] and in assay [19] was over 100 µM throughout.

Take `O=C(O)c1nc2ccc(C(F)(F)F)cc2nc1NCc1ccc(F)cc1`: the TGI in assay [1] is 35.1 µM; in assay [3], 82.6 µM; in [5], 35.4 µM; in [6], over 100 µM; in assay [7] it was 33.2 µM; in assay [8] it was over 100 µM. The TGI in [9] was 61.7 µM; in [10], 94.9 µM; in assay [11], 68.3 µM; in assay [12], over 100 µM; in assay [13], 45.1 µM; in assay [14], 35.2 µM. Also, the TGI in assay [20] was over 100 µM; in assay [15] it was 87.5 µM; in assay [16], 46.1 µM; in assay [18], 33.2 µM; in [19], 42.2 µM.

Consider `COC(=O)[C@H](Cc1c[nH]c2ccccc12)NC(=O)c1ccc(CNC(=O)/C(C)=C/c2ccccc2)cc1`, for which the TGI was 41.7 µM in assay [1]; over 100 µM in assay [3]; 62.8 µM in [4]; over 100 µM in assay [5]; over 100 µM in [6]; over 100 µM in [7]. Moreover, the TGI in assay [8] was over 100 µM; in assay [9], 30.1 µM; in [10], 32.2 µM; in assay [11] it was over 100 µM; in assay [12] it was 7.78 µM; in [13], 27.2 µM. Moreover, the TGI in [14] was 33.2 µM; in assay [20] it was over 100 µM; in [15], over 100 µM; in [16] it was over 100 µM; in assay [18], over 100 µM; in assay [19], over 100 µM.
